From PubChem BioAssay AID1963436 (Molecular Pharmacology Branch, DTP, NCI, 2024)

Tested on: OVCAR-5 complex spheroid (HUVEC/MSC), viability % T/C
Assay: Anticancer human tumor OVCAR-5 cell line growth inhibition [Asc];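 note: spheroids exposed to agents for 7 days before readout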;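 for viability, T/C: 100% = DMSO vehicle-treated wells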
Conditions: for IC50: curve of first compound; for viability, T/C: stronger effect = lower value; active = viability on the fitted dose curve at most 10% of control; inactive = the rest
Method: Multicellular complex tumor spheroid response to apoptosis pathway targeting inhibitors Alrizomadlin, Pelcitoclax, and Dasminapant in combination with a variety of drugs and investigational agents in selected tumor cell lines
The MDM2 inhibitor alrizomadlin, the Bcl-2/Bcl-xL inhibitor pelcitoclax, and the IAPs inhibitor dasminapant were evaluated both individually and in combination with standard of care and investigational anticancer small molecules within a complex spheroid model of solid tumors. . Complex spheroids include a stromal component modeled by human endothelial cells (HUVEC) and fibroblasts modeled by human mesenchymal stem cells (MSCs). The concentration ranges selected for each drug and investigational agent were based upon clinically achievable concentrations if the clinical Cmax of the agent was known.
Compounds. The drugs and investigational agents: alrizomadlin (APG-115; NSC831270), pelcitoclax (APG-1252; NSC835773), dasminapant (APG-1387;NSC834197), TAK-243 (NSC785004), copanlisib (NSC809693), olaparib (NSC753686), talazoparib (NSC767125), cobimetinib (NSC 768068), eltanexor (KPT-8602, NSC 794443), abemaciclib (NSC 768073), sotorasib (NSC818433), adagrasib (NSC 831453), MRTX-1133 (NSC 836407), Iadademestat (ORY1001, NSC 806812), and RMC-4630 (NSC839698), were obtained from the NCI Developmental Therapeutics Program Chemical Repository. The FDA-approved anticancer drug set is available from the Developmental Therapeutics Program at https://dtp.cancer.gov/organization/dscb/obtaining/available plates.htm. […] The stock solutions were prepared in dimethyl sulfoxide (DMSO, Sigma-Aldrich, St. Louis, MO, cat. D2650) at 800-fold the tested concentration and stored at -70 degrees C prior to their use. All drugs and investigational agents were tested over a range starting from a high concentration at or near the clinical Cmax and decreasing in half-log increments. If the clinical Cmax for an agent had not been determined, the highest concentration tested was 10 microM.
The patient-derived cancer (PDC) cell lines include five colon adenocarcinomas: 186277-243-T-J2-PDC, 616215-338-R-J1-PDC, 439559-082-T-J2-PDC, 463943-066-T-J2-PDC, and 519858-162-T-J1-PDC; three pancreatic carcinomas: 323965-272-R-J2-PDC, 521955-158-R6-J3-PDC, and 521955-158-R2-J5-PDC; two uterine sarcomas: 327498-152-R-J2-PDC and 993429-296-R-J1-PDC; two rhabdomyosarcomas: 755483-174-R-J1-PDC and 772245-204-R-J1-PDC; two soft tissue sarcomas: 126254-015-R-J1-PDC and 494315-158-R-J1-PDC; two malignant fibrous histiocytomas: 317291-083-R-J1-PDC and 596521-263-R-J1-PDC; two breast carcinomas: 171881-019-R-J1-PDC and 885512-296-R-J2-PDC; and one ovarian carcinoma: 6556581-035-R-J-PDC were obtained from the NCI PDMR, (https://pdmr.cancer.gov). The established cell lines HSSY-2 synovial sarcoma (RRID:CVCL 8719), SYO-1 synovial sarcoma (RRID:CVCL_7146), MPNST malignant peripheral neural sheath tumor were obtained from the Sloan Kettering Institute. The following established cell lines were purchased from the American Type Culture Collection (ATCC, Manassas, VA), Sor the received from the NCI repository:, PANC-1 pancreatic carcinoma (CRL-1469, RRID:CVCL_0480), OVCAR-5 ovarian carcinoma (RRID:CVCL_1628), OVCAR-8 ovarian carcinoma (RRID:CVCL_1629), , MCF-7 breast carcinoma (CRL-12584, RRID:CVCL_0031), MDA-MB-231 breast carcinoma (CRL-12532, RRID:CVCL_0062), NCI-H1876 small cell lung carcinoma (CRL-5902, RRID:CVCL_1503), NCI-H510A small cell lung carcinoma (HTB-184, RRID:CVCL_1565), NCI-H1417 (CRL-5869, RRID:CVCL_1469), and NCI-H196 small cell lung carcinoma (CRL-5823, RRID:CVCL_1509). Dr. Peter Houghton (Greehey Children's Cancer Research Institute, University of Texas Health Science Center, San Antonio, TX) provided Rh-18 rhabdomyosarcoma (RRID:CVCL_1659). Pooled donor human umbilical vein endothelial cells (HUVEC, Lonza, cat. CC-2519) and human mesenchymal stem cells (hMSC, Lonza, cat. PT-2501) were purchased from Lonza (Walkersville, MD).
Cell Culture. […]

Cn1ncnc1[C@H]1c2n[nH]c(=O)c3cc(F)cc(c23)N[C@@H]1c1ccc(F)cc1 + CCN1C(C(=O)NC23CCC(C(=O)O)(CC2)CC3)C(c2cccc(Cl)c2F)C2(C(=O)Nc3cc(Cl)ccc32)C12CCCCC2
> 100 nM: IC50 (second compound 0.03 µM) | IC50 (second compound 0.0949 µM) | IC50 (second compound 0.3 µM) | IC50 (second compound 0.949 µM) | IC50 (second compound 3 µM)
inactive: viability, T/C (second compound 0.03 µM, first compound 0.000316 µM) 108% | viability, T/C (second compound 0.03 µM, first compound 0.001 µM) 108% | viability, T/C (second compound 0.03 µM, first compound 0.00316 µM) 88.9% | viability, T/C (second compound 0.03 µM, first compound 0.01 µM) 94% | viability, T/C (second compound 0.03 µM, first compound 0.0316 µM) 96% | viability, T/C (second compound 0.03 µM, first compound 0.1 µM) 91.1% | viability, T/C (second compound 0.0949 µM, first compound 0.000316 µM) 103% | viability, T/C (second compound 0.0949 µM, first compound 0.001 µM) 109% | viability, T/C (second compound 0.0949 µM, first compound 0.00316 µM) 89.7% | viability, T/C (second compound 0.0949 µM, first compound 0.01 µM) 91% | viability, T/C (second compound 0.0949 µM, first compound 0.0316 µM) 101% | viability, T/C (second compound 0.0949 µM, first compound 0.1 µM) 82.8% | viability, T/C (second compound 0.3 µM, first compound 0.000316 µM) 112% | viability, T/C (second compound 0.3 µM, first compound 0.001 µM) 114% | viability, T/C (second compound 0.3 µM, first compound 0.00316 µM) 102% | viability, T/C (second compound 0.3 µM, first compound 0.01 µM) 80.7% | viability, T/C (second compound 0.3 µM, first compound 0.0316 µM) 98.3% | viability, T/C (second compound 0.3 µM, first compound 0.1 µM) 98.8% | viability, T/C (second compound 0.949 µM, first compound 0.000316 µM) 112% | viability, T/C (second compound 0.949 µM, first compound 0.001 µM) 121% | viability, T/C (second compound 0.949 µM, first compound 0.00316 µM) 106% | viability, T/C (second compound 0.949 µM, first compound 0.01 µM) 97.4% | viability, T/C (second compound 0.949 µM, first compound 0.0316 µM) 106% | viability, T/C (second compound 0.949 µM, first compound 0.1 µM) 88.7% | viability, T/C (second compound 3 µM, first compound 0.000316 µM) 109% | viability, T/C (second compound 3 µM, first compound 0.001 µM) 105% | viability, T/C (second compound 3 µM, first compound 0.00316 µM) 109% | viability, T/C (second compound 3 µM, first compound 0.01 µM) 91.4% | viability, T/C (second compound 3 µM, first compound 0.0316 µM) 106% | viability, T/C (second compound 3 µM, first compound 0.1 µM) 89%
